In US20260174786A1, “A NITROGEN-CONTAINING SPIROCYCLIC COMPOUND, PHARMACEUTICAL COMPOSITION AND USE THEREOF” (Prime Gene Therapeutics Co., Ltd., priority 2022, published 2026):

Target: T1, hTRPV3 (Homo sapiens, UniProt Q8NET8)
T1 construct: expressed in transfected cells; host or cells: HEK-293
T1 sequence (Q8NET8 1-790): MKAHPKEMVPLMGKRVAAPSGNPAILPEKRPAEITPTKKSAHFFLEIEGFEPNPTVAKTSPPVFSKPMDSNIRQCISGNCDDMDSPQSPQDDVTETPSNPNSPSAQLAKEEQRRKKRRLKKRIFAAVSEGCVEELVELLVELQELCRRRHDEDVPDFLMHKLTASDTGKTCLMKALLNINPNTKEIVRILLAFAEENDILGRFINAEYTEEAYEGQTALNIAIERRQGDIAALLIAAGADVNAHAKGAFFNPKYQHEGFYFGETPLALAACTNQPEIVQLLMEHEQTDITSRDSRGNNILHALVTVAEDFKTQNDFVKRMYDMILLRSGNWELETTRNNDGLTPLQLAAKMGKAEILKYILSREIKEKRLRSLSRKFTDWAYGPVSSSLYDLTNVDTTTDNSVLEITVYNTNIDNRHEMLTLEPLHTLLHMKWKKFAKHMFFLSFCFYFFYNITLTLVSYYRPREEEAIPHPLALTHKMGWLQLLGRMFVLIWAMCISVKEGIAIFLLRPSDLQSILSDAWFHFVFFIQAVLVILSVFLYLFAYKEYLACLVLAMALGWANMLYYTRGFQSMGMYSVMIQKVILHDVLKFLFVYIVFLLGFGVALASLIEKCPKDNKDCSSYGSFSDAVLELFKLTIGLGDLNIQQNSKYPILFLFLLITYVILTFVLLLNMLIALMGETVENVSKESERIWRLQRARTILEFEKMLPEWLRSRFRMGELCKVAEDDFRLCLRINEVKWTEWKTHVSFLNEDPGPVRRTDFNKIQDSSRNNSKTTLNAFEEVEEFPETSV
Assay: Whole cell patch clamp inhibition rate test on HEK-293 cells instantaneously expressing TRPV3
Assay type: cell-based
Conditions: HEK293; hTRPV3, single concentration 0.3 μM
Description: In this study, HEK-293 cells instantaneously expressing TRPV3 were used for experimental detection.
The operation steps are as follows:
The cells were cultured in DMEM medium containing 10% fetal bovine serum at a temperature of 37° C. and a carbon dioxide concentration of 5%.
Day 1: Cells were inoculated into a 6-well plate with 5×10^5 cells per well.
Day 2: Transfection was performed using Lipofectamine 3000 transfection reagent, with a plasmid to transfection reagent ratio of 1 μg: 2 μL. The total amount of plasmid used per well was 3 μg. Specifically, two sterile centrifuge tubes were taken and 100 μL Opti-MEM was added to each tube. 6 μL Lipofectamine 3000 was added to one tube and mixed well; and 3 μg plasmid was added to another tube and mixed well, and then 6 μL P3000 was added and mixed well; Subsequently, the diluted plasmid DNA was added to diluted Lipofectamine 3000 and incubated at room temperature for 10-15 min. DNA liposome complex was dropped into the cells, shaked gently and mixed well, and then cultured in an incubator. The liquid was changed after 4 to 6 h.
Day 3: The cells were digested and seeded into 24 well plates with pre-placed cover slides, with 8×10^3 cells per well.
Day 4: Patch clamp testing was performed.
The voltage stimulation protocol for recording TRPV3 current using whole cell patch clamp is as follows: after forming a whole cell seal, a cell membrane voltage clamp was set at −80 mV. Firstly, a membrane potential was recorded at 0 mV, and then a voltage was command to start from −100 mV, to depolarize in the form of Ramp to 100 mV within 100 ms, and finally restore to 0 mV. Data collection was repeated every 5 seconds to observe the inhibitory effect of pharmaceutical on peak current. Experimental data was collected by EPC 10 amplifier (HEKA) and stored in PatchMaster (HEKA) software.
A microelectrode puller was used to pull the capillary glass tube into a recording electrode. The electrode filled with intracellular fluid was inserted into a microelectrode holder, and a microelectrode manipulator was operated under an inverted microscope to immerse the electrode in extracellular fluid and an electrode resistance (Rpip) was recorded. The electrode was brought into contact with the cell surface and a negative pressure suction was applied to form a high resistance seal (GΩ). At this point, a fast capacitance compensation was performed, and negative pressure was continued to apply in order to break the cell membrane, so that a whole cell recording mode was formed. Then, a slow capacitance compensation was performed and experimental parameters such as film capacitance (Cm) and series resistance (Rs) were recorded. No leakage compensation was provided.
When the TRPV3 current recorded by the whole cell had stabilized, administration was started. Each pharmaceutical concentration acted for 5 minutes (or until the current stabilized) before detecting the next concentration. A plurality of concentrations was tested for each test compound. A cover glass covered with cells was placed in a recording bath under an inverted microscope. A blank control extracellular solution and a working fluid for the compound to be tested sequentially flowed through the recording bath from low concentration to high concentration using gravity perfusion to act on the cells. Liquid exchange was performed using a peristaltic pump during recording. The current detected by each cell in the extracellular fluid without the compound served as its own control group. Each concentration was independently tested twice using at least two cells. All electrophysiological tests were conducted at room temperature.

O=C(c1ccc(C(F)(F)F)cn1)N1CCC2(CC(O)c3cc(-c4ccccc4C4CC4)ccc32)C1 (stereo not shown) [Example 50, (5-(2-cyclopropylphenyl)-3-hydroxy-2,3-dihydrospiro[indene-1,3′-pyrrolidine]-1′-yl)(5-(trifluoromethyl)pyridin-2-yl) ketone] and Cc1cccc(C(=O)N2CCC3(CC(O)c4cc(-c5ccccc5C5CC5)ccc43)C2)n1 (stereo not shown) [Example 53, (5-(2-cyclopropylphenyl)-3-hydroxy-2,3-dihydrospiro[indene-1,3′-pyrrolidine]-1′-yl)(6-methylpyridin-2-yl)ketone] fall in the same range of inhibition at 0.3 µM: 70 to 100% for the first, 70 to 100% for the second.

O=C(c1cccc(Cl)n1)N1CCC2(CC(O)c3cc(-c4ccccc4C4CC4)ccc32)C1 (stereo not shown) [Example 51, (6-chloropyridin-2-yl)(5-(2-cyclopropylphenyl)-3-hydroxy-2,3-dihydrospiro[indene-1,3′-pyrrolidine]-1′-yl)ketone] and O=C(c1ccc(F)c(Cl)n1)N1CCC2(CC(O)c3cc(-c4ccccc4C4CC4)ccc32)C1 (stereo not shown) [Example 54, (6-chloro-5-fluoropyridin-2-yl)(5-(2-cyclopropylphenyl)-3-hydroxy-2,3-dihydrospiro[indene-1,3′-pyrrolidine]-1′-yl)ketone] fall in the same range of inhibition at 0.3 µM: 70 to 100% for the first, 70 to 100% for the second.

O=C(c1ncccc1Cl)N1CCC2(CC(O)c3cc(-c4ccccc4C4CC4)ccc32)C1 (stereo not shown) [Example 52, (3-chloropyridin-2-yl)(5-(2-cyclopropylphenyl)-3-hydroxy-2,3-dihydrospiro[indene-1,3′-pyrrolidine]-1′-yl)ketone] and O=C(c1ccc(F)cn1)N1CCC2(CC(O)c3cc(-c4ccccc4Cl)ccc32)C1 (stereo not shown) [Example 81, (5-(2-chlorophenyl)-3-hydroxy-2,3-dihydrospiro[indene-1,3′-pyrrolidine]-1′-yl)(5-fluoropyridin-2-yl) ketone] fall in the same range of inhibition at 0.3 µM: 50 to 70% for the first, 50 to 70% for the second.

First: COc1ncnc(OC)c1C(=O)N1CCC2(CC(O)c3cc(-c4ccccc4C4CC4)ccc32)C1 (stereo not shown) [Example 56, (5-(2-cyclopropylphenyl)-3-hydroxy-2,3-dihydrospiro[indene-1,3′-pyrrolidine]-1′-yl)(4,6-dimethoxypyrimidin-5-yl)ketone]
Second: COc1cnc(C(=O)N2CCC3(CC(O)c4cc(-c5ccccc5C(C)C)ccc43)C2)cn1 (stereo not shown) [Example 63, (3-hydroxy-5-(2-isopropylphenyl)-2,3-dihydrospiro[indene-1,3′-pyrrolidine]-1′-yl)(5-methoxypyrazin-2-yl) ketone]
The inhibition at 0.3 µM of the first is lower: less than 25% for the first, 70 to 100% for the second.

Compared with CC(C)c1ccccc1-c1ccc2c(c1)C(O)CC21CCN(C(=O)c2ccn3nccc3n2)C1 (stereo not shown) [Example 57, (3-hydroxy-5-(2-isopropylphenyl)-2,3-dihydrospiro[indene-1,3′-pyrrolidine]-1′-yl)(pyrazolo[1,5-a]pyrimidin-5-yl) ketone], CC(C)c1ccccc1-c1ccc2c(c1)C(O)CC21CCN(C(=O)c2ccccn2)C1 (stereo not shown) [Example 60, (3-hydroxy-5-(2-isopropylphenyl)-2,3-dihydrospiro[indene-1,3′-pyrrolidine]-1′-yl)(pyridin-2-yl)ketone] is higher in inhibition at 0.3 µM: 50 to 70% for the first, 70 to 100% for the second.

First: CC(C)c1ccccc1-c1ccc2c(c1)C(O)CC21CCN(C(=O)c2ccc(Cl)cn2)C1 (stereo not shown) [Example 58, (5-chloropyridin-2-yl)(3-hydroxy-5-(2-isopropylphenyl)-2,3-dihydrospiro[indene-1,3′-pyrrolidine]-1′-yl)ketone]
Second: CC(C)c1ccccc1-c1ccc2c(c1)C(O)CC21CCN(C(=O)c2ccncn2)C1 (stereo not shown) [Example 67, (3-hydroxy-5-(2-isopropylphenyl)-2,3-dihydrospiro[indene-1,3′-pyrrolidine]-1′-yl)(pyrimidin-4-yl)ketone]
The inhibition at 0.3 µM of the first is higher: 70 to 100% for the first, 50 to 70% for the second.

First: CC(C)c1ccccc1-c1ccc2c(c1)C(O)CC21CCN(C(=O)c2ccc(F)cc2)C1 (stereo not shown) [Example 61, (4-fluorophenyl)(3-hydroxy-5-(2-isopropylphenyl)-2,3-dihydrospiro[indene-1,3′-pyrrolidine]-1′-yl)ketone]
Second: CC(C)c1ccccc1-c1ccc2c(c1)C(O)CC21CCN(C(=O)c2cc[nH]n2)C1 (stereo not shown) [Example 71, (3-hydroxy-5-(2-isopropylphenyl)-2,3-dihydrospiro[indene-1,3′-pyrrolidine]-1′-yl)(1H-pyrazol-3-yl)ketone]
The inhibition at 0.3 µM of the first is higher: 70 to 100% for the first, 50 to 70% for the second.

First: Cc1cnc(C(=O)N2CCC3(CC(O)c4cc(-c5ccccc5C(C)C)ccc43)C2)cn1 (stereo not shown) [Example 65, (3-hydroxy-5-(2-isopropylphenyl)-2,3-dihydrospiro[indene-1,3′-pyrrolidine]-1′-yl)(5-methylpyrazin-2-yl)ketone]
Second: COCc1cnc(C(=O)N2CCC3(CC(O)c4cc(-c5ccccc5C(C)C)ccc43)C2)cn1 (stereo not shown) [Example 69, (3-hydroxy-5-(2-isopropylphenyl)-2,3-dihydrospiro[indene-1,3′-pyrrolidine]-1′-yl)(5-(methoxymethyl)pyrazin-2-yl)ketone]
The inhibition at 0.3 µM of the first is higher: 70 to 100% for the first, less than 25% for the second.

Compared with CC(C)c1ccccc1-c1ccc2c(c1)C(O)CC21CCN(C(=O)c2ncccn2)C1 (stereo not shown) [Example 66, (3-hydroxy-5-(2-isopropylphenyl)-2,3-dihydrospiro[indene-1,3′-pyrrolidine]-1′-yl)(pyrimidin-2-yl)ketone], CC(C)c1ccccc1-c1ccc2c(c1)C(O)CC21CCN(C(=O)c2cocn2)C1 (stereo not shown) [Example 70, (3-hydroxy-5-(2-isopropylphenyl)-2,3-dihydrospiro[indene-1,3′-pyrrolidine]-1′-yl)(oxazol-4-yl)ketone] is higher in inhibition at 0.3 µM: 25 to 50% for the first, 50 to 70% for the second.

First: CC(C)c1ccccc1-c1ccc2c(c1)C(O)CC21CCN(C(=O)C2CCN(C)CC2)C1 (stereo not shown) [Example 74, (3-hydroxy-5-(2-isopropylphenyl)-2,3-dihydrospiro[indene-1,3′-pyrrolidine]-1′-yl)(1-methylpiperidin-4-yl) ketone]
Second: CC(C)c1ccccc1-c1ccc2c(c1)C(O)CC21CCN(C(=O)c2cc3cccn3cn2)C1 (stereo not shown) [Example 76, (3-hydroxy-5-(2-isopropylphenyl)-2,3-dihydrospiro[indene-1,3′-pyrrolidine]-1′-yl)(pyrrolo[1,2-c]pyrimidin-3-yl)ketone]
The inhibition at 0.3 µM of the first is lower: less than 25% for the first, 50 to 70% for the second.

Compared with CC(C)c1ccccc1-c1ccc2c(c1)C(O)CC21CCN(C(=O)c2ccc3cn[nH]c3n2)C1 (stereo not shown) [Example 75, (3-hydroxy-5-(2-isopropylphenyl)-2,3-dihydrospiro[indene-1,3′-pyrrolidine]-1′-yl)(1Hpyrazolo[3,4-b]pyridin-6-yl) ketone], CCc1ccccc1-c1ccc2c(c1)C(O)CC21CCN(C(=O)c2ccc(F)cn2)C1 (stereo not shown) [Example 80, (5-(2-ethylphenyl)-3-hydroxy-2,3-dihydrospiro[indene-1,3′-pyrrolidine]-1′-yl)(5-fluoropyridin-2-yl) ketone] is higher in inhibition at 0.3 µM: 25 to 50% for the first, 70 to 100% for the second.
